Results published in ChEMBL document CHEMBL4219026, “A Cereblon Modulator (CC-220) with Improved Degradation of Ikaros and Aiolos” (J Med Chem, 2018).
Active and inactive are the calls of the source. The calls are words filed in the database; no cut-off is given here.

Experiments:
[1] = molecular target: Cereblon/Casein kinase I alpha (Homo sapiens) (UniProt P48729+Q96SW2); test: Induction of cereblon-mediated CK1alpha (unknown origin) degradation in at 0.0005 to 10 uM after 4 hrs by cell-based chemiluminescent assay
Chain of Cereblon/Casein kinase I alpha (Homo sapiens) (P48729 2-337 limits assumed): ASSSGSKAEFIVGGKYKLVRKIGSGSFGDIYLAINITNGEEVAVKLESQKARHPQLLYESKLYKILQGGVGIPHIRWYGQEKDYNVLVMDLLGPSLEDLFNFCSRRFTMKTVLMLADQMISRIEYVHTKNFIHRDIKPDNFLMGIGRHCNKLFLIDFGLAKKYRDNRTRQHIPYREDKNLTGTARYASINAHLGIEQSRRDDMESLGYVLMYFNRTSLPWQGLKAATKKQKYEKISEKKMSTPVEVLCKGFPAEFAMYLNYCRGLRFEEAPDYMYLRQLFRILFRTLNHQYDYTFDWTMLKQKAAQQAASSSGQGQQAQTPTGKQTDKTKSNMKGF
Chain of Cereblon/Casein kinase I alpha (Homo sapiens) (Q96SW2 whole entry partner): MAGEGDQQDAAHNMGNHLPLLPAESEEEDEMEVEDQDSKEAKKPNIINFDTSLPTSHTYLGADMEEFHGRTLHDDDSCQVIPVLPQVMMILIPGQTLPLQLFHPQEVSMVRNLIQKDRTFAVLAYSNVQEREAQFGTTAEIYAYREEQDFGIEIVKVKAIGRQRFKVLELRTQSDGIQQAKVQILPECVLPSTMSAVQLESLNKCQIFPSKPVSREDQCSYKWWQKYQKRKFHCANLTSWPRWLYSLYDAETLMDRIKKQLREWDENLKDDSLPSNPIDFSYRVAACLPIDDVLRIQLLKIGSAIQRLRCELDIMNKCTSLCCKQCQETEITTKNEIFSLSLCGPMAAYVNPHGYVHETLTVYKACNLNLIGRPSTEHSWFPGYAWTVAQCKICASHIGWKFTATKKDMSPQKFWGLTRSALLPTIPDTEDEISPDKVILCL

[2] = molecular target: Protein cereblon/Eukaryotic peptide chain release factor GTP-binding subunit ERF3A (Homo sapiens) (UniProt Q96SW2+P15170); test: Induction of cereblon-mediated GSPT1 degradation in human DF15 cells expressing ePL-tagged GSPT1 at 0.0005 to 10 uM after 4 hrs by luminometric analysis; format: cell-based
Chain of Protein cereblon/Eukaryotic peptide chain release factor GTP-binding subunit ERF3A (Homo sapiens) (P15170 whole entry, looked up): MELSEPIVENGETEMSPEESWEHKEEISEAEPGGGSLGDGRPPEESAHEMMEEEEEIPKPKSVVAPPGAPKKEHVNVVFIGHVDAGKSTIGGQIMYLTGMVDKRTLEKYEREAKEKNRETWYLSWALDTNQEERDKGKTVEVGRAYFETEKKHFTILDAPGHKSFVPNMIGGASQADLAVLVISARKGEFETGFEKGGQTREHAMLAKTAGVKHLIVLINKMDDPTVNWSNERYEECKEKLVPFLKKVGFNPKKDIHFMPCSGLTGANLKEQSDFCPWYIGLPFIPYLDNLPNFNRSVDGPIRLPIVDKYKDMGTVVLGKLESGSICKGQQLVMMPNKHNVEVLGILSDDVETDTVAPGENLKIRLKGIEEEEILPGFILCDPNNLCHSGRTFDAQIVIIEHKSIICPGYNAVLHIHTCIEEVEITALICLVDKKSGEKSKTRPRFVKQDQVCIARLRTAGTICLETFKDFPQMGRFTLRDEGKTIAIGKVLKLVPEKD
Chain of Protein cereblon/Eukaryotic peptide chain release factor GTP-binding subunit ERF3A (Homo sapiens) (Q96SW2 whole entry, looked up): as the sequence (Q96SW2 whole entry partner) above

## O=C1CC[C@H](N2Cc3c(OCc4ccc(CN5CCOCC5)cc4)cccc3C2=O)C(=O)N1
[1]
  Activity: inactive
[2]
  Activity: inactive
